Laboratory results as given in patent US20070128217A1 (priority 2003, published 2007).

Assays:
[1] = test system: antibodies in sera from SARS patients (sera 1a, 1b, 2, 6, 37, 62, London, SARS-yellow, SARS-green); type: binding, human; design: Binding of serum 6 to linear peptides of protein X1 of SARS-CoV Urbani / Binding of serum 37 to linear peptides of protein X1 of SARS-CoV Urbani / Binding of serum 6 to looped/cyclic peptide (PEPSCAN-ELISA) / Binding of serum 37 to looped/cyclic peptide (PEPSCAN-ELISA) / Binding of serum 37 to looped/cyclic peptides of protein X1 of SARS-CoV Urbani / Binding of serum 6 to linear peptides of protein X2 / Binding of serum 37 to linear peptides of protein X2 / Binding of serum 37 to looped/cyclic peptides of protein X2 of SARS-CoV Urbani / Binding of serum 6 to linear peptides of protein M of SARS-CoV Urbani / Binding of serum 37 to linear peptides of protein M of SARS-CoV Urbani / Binding of serum 6 to looped/cyclic peptides of protein M of SARS-CoV Urbani / Binding of serum 37 to looped/cyclic peptides of protein M of SARS-CoV Urbani / Binding of serum 6 to linear peptides of protein X3 of SARS-CoV Urbani / Binding of serum 37 to linear peptides of protein X3 of SARS-CoV Urbani / Binding of serum 37 to looped/cyclic peptides of protein X3 of SARS-CoV Urbani / Binding of serum 6 to linear peptides of protein X4 of SARS-CoV Urbani / Binding of serum 37 to linear peptides of protein X4 of SARS-CoV Urbani / Binding of serum 37 to looped/cyclic peptides of protein X4 of SARS-CoV Urbani / Binding of serum 6 to linear peptides of protein X5 of SARS-CoV Urbani / Binding of serum 37 to linear peptides of protein X5 of SARS-CoV Urbani / Binding of serum 37 to looped/cyclic peptides of protein X5 of SARS-CoV Urbani / Binding of serum 6 to linear peptides of protein N of SARS-CoV Urbani / Binding of serum 37 to linear peptides of protein N of SARS-CoV Urbani / Binding of serum 6 to linear peptide (PEPSCAN-ELISA) / Binding of serum 1a to looped/cyclic peptides of protein N of SARS-CoV Urbani / Binding of serum 1b to looped/cyclic peptides of protein N of SARS-CoV Urbani / Binding of serum 2 to looped/cyclic peptides of protein N of SARS-CoV Urbani / Binding of serum 6 to looped/cyclic peptides of protein N of SARS-CoV Urbani / Binding of serum 37 to looped/cyclic peptides of protein N of SARS-CoV Urbani / Binding of serum 62 to looped/cyclic peptides of protein N of SARS-CoV Urbani / Binding of serum London to looped/cyclic peptides of protein N of SARS-CoV Urbani / Binding of serum SARS-green to looped/cyclic peptides of protein N of SARS-CoV Urbani: unit not given here
[2] = test system: control sera (pooled serum of ten healthy LUMC hospital workers; commercial negative donor pooled serum from the Dutch bloodbank); type: binding, human; design: Binding of Control serum LUMC to linear peptides / Binding of Control serum Blood-bank to linear peptides / Binding of Control serum LUMC to looped peptides / Binding of Control Serum Blood-Bank to Looped peptides / Binding of Control serum LUMC to linear peptides of the protein M of SARS-CoV Urbani / Binding of Control serum Blood-bank to linear peptides of the protein M of SARS-CoV Urbani / Binding of Control serum LUMC to looped peptides of the protein M of SARS-CoV Urbani / Binding of Control Serum Blood-Bank to Looped peptides of the protein M of SARS-CoV Urbani: unit not given here
[3] = test system: rabbit serum obtained by immunizing a rabbit with the SARS-CoV strain Frankfurt 1; type: binding; design: Binding of a rabbit serum to linear peptides / Binding of a rabbit serum to looped peptides / Rabbit serum linear peptides / Rabbit serum looped peptides / Binding of a rabbit serum to linear peptides of protein N of SARS-CoV Urbani (Rabbit serum linear peptides) / Binding of a rabbit serum to looped/cyclic peptides of protein N of SARS-CoV Urbani (Rabbit serum looped peptides): unit not given here

Sequence | Binding of serum 1a to linear peptides of protein M of SARS-CoV Urbani [1] | Binding of serum 1b to linear peptides of protein M of SARS-CoV Urbani [1] | Binding of serum 2 to linear peptides of protein M of SARS-CoV Urbani [1] | Binding of serum 6 to linear peptides of protein M of SARS-CoV Urbani [1] | Binding of serum 37 to linear peptides of protein M of SARS-CoV Urbani [1] | Binding of serum 62 to linear peptides of protein M of SARS-CoV Urbani [1] | Binding of serum London to linear peptides of protein M of SARS-CoV Urbani [1] | Binding of serum SARS-green to linear peptides of protein M of SARS-CoV Urbani [1] | Binding of serum SARS-yellow to linear peptides of protein M of SARS-CoV Urbani [1] | Binding of Control Serum Blood-Bank to Looped peptides of the protein M of SARS-CoV Urbani [2] | Binding of Control serum Blood-bank to linear peptides of the protein M of SARS-CoV Urbani [2] | Binding of Control serum LUMC to linear peptides of the protein M of SARS-CoV Urbani [2] | Binding of Control serum LUMC to looped peptides of the protein M of SARS-CoV Urbani [2] | Rabbit serum linear peptides [3] | Rabbit serum looped peptides [3] | Binding of serum 1a to looped/cyclic peptides of protein M of SARS-CoV Urbani [1] | Binding of serum 1b to looped/cyclic peptides of protein M of SARS-CoV Urbani [1] | Binding of serum 2 to looped/cyclic peptides of protein M of SARS-CoV Urbani [1] | Binding of serum 6 to looped/cyclic peptides of protein M of SARS-CoV Urbani [1] | Binding of serum 37 to looped/cyclic peptides of protein M of SARS-CoV Urbani [1] | further results
LLNVPLRGTIVTRPL | 0.8 | 0.5 | 0.5 | 0.5 | 0.6 | 0.7 | 0.4 | 0.3 | 0.1 | 0.9 | 0.7 | 0.4 | 0.5 | 0.4 | 0.0 |  |  |  |  |  | Recognition of the peptide by sera of SARS-CoV infected individuals, and form (linear, looped/cyclic) in which it is recognized [1]: recognized in looped/cyclic form
LLQFAYSNRNRFLYI | 0.7 | 0.6 | 0.4 | 0.3 | 0.3 | 0.3 | 0.3 | 0.5 | 0.2 | 0.5 | 0.6 | 0.6 | 0.5 | 0.2 | 0.4 | 0.7 | 0.5 | 0.6 | 0.6 | 0.5 | Binding of serum 62 to looped/cyclic peptides of protein M of SARS-CoV Urbani [1]: 0.4; Binding of serum London to looped/cyclic peptides of protein M of SARS-CoV Urbani [1]: 0.2; Binding of serum SARS-green to looped/cyclic peptides of protein M of SARS-CoV Urbani [1]: 0.1; Binding of serum SARS-yellow to looped/cyclic peptides of protein M of SARS-CoV Urbani [1]: 0.5
LLWPVTLACFVLAAV | 0.7 | 0.5 | 0.6 | 0.4 | 0.5 | 0.5 | 0.3 | 0.5 | 0.1 | 0.6 | 0.7 | 0.7 | 0.7 | 0.2 | 0.3 | 0.9 | 0.5 | 0.9 | 0.6 | 0.8 | Binding of serum 62 to looped/cyclic peptides of protein M of SARS-CoV Urbani [1]: 0.8; Binding of serum London to looped/cyclic peptides of protein M of SARS-CoV Urbani [1]: 0.3; Binding of serum SARS-green to looped/cyclic peptides of protein M of SARS-CoV Urbani [1]: 0.4; Binding of serum SARS-yellow to looped/cyclic peptides of protein M of SARS-CoV Urbani [1]: 0.9
